The values that follow come from patent US10647686B2, “Substituted pyrimidines for preventing or treating cancer and inflammatory diseases” (KOREA RESEARCH INSTITUTE OF CHEMICAL TECHNOLOGY, priority 2016, dated 2020).

One assay addresses DRAK1 (Homo sapiens (Human), UniProt Q9UEE5). In words: DRAK1 kinase activity inhibition (ADP-Glo, MRCL3 peptide substrate). The assay is classed as biochemical. How it is done:
(§1) DRAK1 and DRAK2 recombinant proteins were purchased from SignalChem Inc. To measure the kinase enzyme activity, the ADP-Glo™ kit provided by Promega Inc. was used. Buffer A used in the kinase reaction was composed of 60 mM Tris-Cl (pH 7.5), 30 mM MgCl2 and 0.15% BSA. Just before the experiment, 1 mM DTT was prepared by diluting 1 M solution and added thereto.
(§2) To measure the DRAK1 and DRAK2 activity, the substrate MRCL3 peptide and ATP were mixed with the enzymes. After an appropriate period of time, the reaction product ADP was quantitatively analyzed.
(§3) The buffer solution A was used to make a 3× substrate solution of 3× concentration so that the final concentrations of ATP and MRCL3 peptides were 1 uM, respectively, and 2.5 μl of each solution was dispensed into Optiplate 384 (perkin-elmer) microplate.
(§4) The final concentrations of ATP and MRCL3 peptide were made to be 1 uM respectively by using buffer A, followed by preparing a 3× substrate solution. The prepared substrate solution was distributed in Optiplate 384 (Perkin-Elmer) microplate (2.5 ul/well). Then, the compounds of Examples 1˜39 and the compounds of Comparative Examples 1-6, whose concentrations were tripled by the final concentration were distributed thereto (2.5 ul/well). Lastly, DRAK1 or DRAK2 enzyme solution, properly diluted by using buffer A, was added thereto (2.5 ul/well). Centrifugation was performed at 800 rpm for 1 minute, and then enzyme reaction was induced at 30° C.
(§5) 2 hours later, the enzyme reaction was terminated. To eliminate residual ATP, ADP-Glo™ reagent contained in ADP-Glo™ was added to each well at the concentration of 7.5 ul, which was the same amount as the sum of the previously added reagents, followed by centrifugation at the same RPM and time as the above. Additional reaction was induced at room temperature for 40 minutes. To convert the ADP produced by the kinase activity to ATP, 15 ul of kinase detection buffer was added to each well, followed by centrifugation. Five minutes after the centrifugation was completed, the luminescence value of the reaction product was determined using Envision, and the enzyme activity inhibition effect of the compound was measured. Then, IC50 of each compound was determined using Prism program.
(§6) The compounds of Example 1 and Example 19 were used as the experimental group and the compound of Comparative Example 6 was used as the control.

The next assay addresses DRAK2 (Homo sapiens (Human), UniProt O94768). In words: DRAK2 kinase activity inhibition (ADP-Glo, MRCL3 peptide substrate). The assay is classed as biochemical. As to conditions: for DRAK2 IC50 compared with Comparative Examples 7 and 8 (n is 0) / DRAK2 selectivity (DRAK2 versus DRAK1): result in words; for DRAK2 IC50 compared with Comparative Examples 7 and 8 (n is 0): from Table 5; for DRAK2 selectivity (DRAK2 versus DRAK1): from Table 4. How it is done:
as §1, §2, §3, §4, §5, §6
To evaluate DRAK2 inhibition activity of the compound represented by formula 1 according to the number of n, the experiment was performed with the compounds of Example 1, Example 19, Example 40, Comparative Example 7 and W Comparative Example 8 by the same manner as described in Experimental Example 1, leading to the measurement of IC50 to DRAK2.
Background: ADP-Glo first removes unused ATP, then detects ADP through luciferase.

The mark [1] stands for this setting: Table 3, recombinant enzyme, 1 uM ATP, 1 uM MRCL3 peptide, 30° C., 2 hours.
[2] abbreviates: Table 5, Experimental Example 3, according to the number of n.
Setting [3] is: Table 4, Experimental Example 2, DRAK2 selectivity evaluation.

Sequence of DRAK1 (Q9UEE5 whole entry): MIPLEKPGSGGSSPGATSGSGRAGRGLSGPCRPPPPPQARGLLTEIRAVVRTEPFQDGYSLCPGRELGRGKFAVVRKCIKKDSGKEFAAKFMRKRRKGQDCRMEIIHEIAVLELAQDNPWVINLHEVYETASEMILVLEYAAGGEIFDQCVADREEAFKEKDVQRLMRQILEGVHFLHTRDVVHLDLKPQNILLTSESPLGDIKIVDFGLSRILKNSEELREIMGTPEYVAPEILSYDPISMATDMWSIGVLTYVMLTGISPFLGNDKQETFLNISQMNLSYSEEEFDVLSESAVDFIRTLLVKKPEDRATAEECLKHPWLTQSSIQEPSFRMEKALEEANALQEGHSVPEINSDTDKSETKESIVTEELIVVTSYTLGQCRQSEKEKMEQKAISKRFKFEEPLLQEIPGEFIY
Sequence of DRAK2 (O94768 whole entry): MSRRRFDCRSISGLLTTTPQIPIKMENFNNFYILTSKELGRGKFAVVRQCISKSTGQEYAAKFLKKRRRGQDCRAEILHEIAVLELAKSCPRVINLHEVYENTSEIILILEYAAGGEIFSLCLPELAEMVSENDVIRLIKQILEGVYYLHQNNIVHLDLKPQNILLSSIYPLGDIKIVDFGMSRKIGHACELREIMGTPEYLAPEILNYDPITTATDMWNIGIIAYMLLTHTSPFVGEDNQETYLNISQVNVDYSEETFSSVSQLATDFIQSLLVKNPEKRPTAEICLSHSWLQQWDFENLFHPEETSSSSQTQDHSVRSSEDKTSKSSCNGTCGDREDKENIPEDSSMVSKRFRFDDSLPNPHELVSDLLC

For `NCCCNc1nc(Nc2ccc(F)c(C(F)(F)F)c2)ncc1Cl` [Example 15, N4-(3-aminopropyl)-5-chloro-N2-(4-fluoro-3-(trifluoromethyl)phenyl)pyrimidine-2,4-diamine], the results for the IC50 at DRAK1 (setting [1]) and on DRAK2 (setting [1]) were 180 nM and 26 nM, respectively.

Regarding `NCCCNc1nc(Nc2ccc3c(c2)OCO3)ncc1Cl` [Example 20, N4-(3-aminopropyl)-N2-(benzo[d][1,3]dioxol-5-yl)-5-chloropyrimidine-2,4-diamine], the IC50 (usually the concentration that gives 50% inhibition) was 350 nM at DRAK1 (setting [1]) and 16 nM on DRAK2 (setting [1]).

Turning to `NCCCNc1nc(Nc2ccc(Br)c(C(F)(F)F)c2)ncc1Cl` [Example 16, N4-(3-aminopropyl)-N2-(4-bromo-3-(trifluoromethyl)phenyl)-5-chloropyrimidine-2,4-diamine], the IC50 worked out at 740 nM at DRAK1 (setting [1]) and 34 nM at DRAK2 (setting [1]).

For `NCCCCNc1nc(Nc2ccc(Cl)cc2)ncc1Cl` [Example 40, N4-(4-n-aminobutyl)-N2-(4-chlorophenyl)-5-chloropyrimidine-2,4-diamine], the 50% inhibitory concentration (IC50) at DRAK1 (setting [1]) is 480 nM; at DRAK2 (setting [1]), 47 nM; against DRAK2 (setting [2]) it was 47 nM. Besides, the “DRAK2 IC50 compared with Comparative Examples 7 and 8 (n is 0)” value on DRAK2 was “significantly lower IC50”.

Turning to `CCc1ccc(Nc2ncc(Cl)c(NCCCN)n2)cc1` [Example 11, N4-(3-aminopropyl)-5-chloro-N2-(4-ethylphenyl)pyrimidine-2,4-diamine], the IC50 on DRAK1 (setting [1]) is 370 nM; at DRAK2 (setting [1]), 44 nM.

For `NCCCNc1nc(Nc2ccc(F)c(Cl)c2)ncc1Cl` [Example 7, N4-(3-aminopropyl)-5-chloro-N2-(3-chloro-4-fluorophenyl)pyrimidine-2,4-diamine], the half-inhibitory concentration (IC50) on DRAK1 (setting [1]) is 200 nM; on DRAK2 (setting [1]) it was 70 nM.

In the case of `NCCCNc1nc(Nc2ccc(Cl)c(Cl)c2)ncc1Cl` [Example 8, N4-(3-aminopropyl)-5-chloro-N2-(3,4-dichlorophenyl)pyrimidine-2,4-diamine], the IC50 on DRAK1 (setting [1]) is 310 nM; on DRAK2 (setting [1]), 59 nM.

With `CCCCCCc1ccc(Nc2ncc(Cl)c(NCCCN)n2)cc1` [Example 12, N4-(3-aminopropyl)-5-chloro-N2-(4-hexylphenyl)pyrimidine-2,4-diamine], the half-inhibitory concentration (IC50) on DRAK1 (setting [1]) came out at 1900 nM; at DRAK2 (setting [1]), 56 nM.

As to `NCCCNc1nc(Nc2ccc3c(c2)CCCC3)ncc1Cl` [Example 23, N4-(3-aminopropyl)-5-chloro-N2-(5,6,7,8-tetrahydronaphthalene-2-yl)pyrimidine-2,4-diamine], the half-inhibitory concentration (IC50) worked out at 160 nM on DRAK1 (setting [1]) and 15 nM at DRAK2 (setting [1]).

Regarding `NCCCNc1nc(Nc2ccc(Cl)cc2)ncc1Cl` [Example 1, N4-(3-aminopropyl)-5-chloro-N2-(4-chlorophenyl)pyrimidine-2,4-diamine], the half-inhibitory concentration (IC50) amounted to 410 nM on DRAK1 (setting [1]); 410 nM against DRAK1 (setting [3]); 38 nM on DRAK2 (setting [1]); 38 nM on DRAK2 (setting [3]); 32 nM against DRAK2 (setting [2]). Further, on DRAK2, the “DRAK2 selectivity (DRAK2 versus DRAK1)” value is “excellent DRAK2 selectivity”. The “DRAK2 IC50 compared with Comparative Examples 7 and 8 (n is 0)” value on DRAK2 is “significantly lower IC50”.

In the case of `Cc1cnc(Nc2ccc(Cl)cc2)nc1NCCCN` [Example 19, N4-(3-aminopropyl)-N2-(4-chlorophenyl)-5-methylpyrimidine-2,4-diamine], the concentration for half-maximal inhibition (IC50) was found to be 710 nM on DRAK1 (setting [1]); 710 nM against DRAK1 (setting [3]); 23 nM on DRAK2 (setting [1]); 23 nM on DRAK2 (setting [3]); 23 nM against DRAK2 (setting [2]). Further, the “DRAK2 selectivity (DRAK2 versus DRAK1)” value on DRAK2 is “excellent DRAK2 selectivity”. Besides, the “DRAK2 IC50 compared with Comparative Examples 7 and 8 (n is 0)” value at DRAK2 is “significantly lower IC50”.

Consider `NCCCNc1nc(Nc2ccc(S(=O)(=O)c3ccc([N+](=O)[O-])cc3)cc2)ncc1Cl` [Example 13, N4-(3-aminopropyl)-5-chloro-N2-(4-(4-nitrophenylsulfonyl)phenyl)pyrimidine-2,4-diamine], for which the IC50 on DRAK1 (setting [1]) came to 110 nM; at DRAK2 (setting [1]) it was 14 nM.

For the compound `Cc1ccc(Nc2ncc(Cl)c(NCCCN)n2)cc1Cl` [Example 6, N4-(3-aminopropyl)-5-chloro-N2-(3-chloro-4-methylphenyl)pyrimidine-2,4-diamine], the IC50 was determined as 220 nM on DRAK1 (setting [1]) and 24 nM on DRAK2 (setting [1]).

Take `NCCCNc1nc(Nc2ccc3c(c2)CCC3)ncc1Cl` [Example 21, N4-(3-aminopropyl)-5-chloro-N2-(2,3-dihydro-1H-indene-5-yl)pyrimidine-2,4-diamine]: the IC50 is 220 nM on DRAK1 (setting [1]) and 21 nM on DRAK2 (setting [1]).

On to `Cc1ccc(Nc2ncc(Cl)c(NCCCN)n2)cc1C` [Example 14, N4-(3-aminopropyl)-5-chloro-N2-(3,4-dimethylphenyl)pyrimidine-2,4-diamine], for which the IC50 on DRAK1 (setting [1]) is 220 nM; at DRAK2 (setting [1]) it was 37 nM.

With `NCCCNc1nc(Nc2ccc(Oc3ccccc3)cc2)ncc1Cl` [Example 10, N4-(3-aminopropyl)-5-chloro-N2-(4-phenoxyphenyl)pyrimidine-2,4-diamine], the figures for the IC50 at DRAK1 (setting [1]) and on DRAK2 (setting [1]) were 180 nM and 26 nM, respectively.
